Laboratory results from patent US20240335444A1, “MODULATORS OF BCL6 PROTEOLYSIS AND ASSOCIATED METHODS OF USE” (Arvinas Operations, Inc., priority 2023, published 2024).

Legend:
[1] = biological target: T1, BCL6 protein (Homo sapiens, UniProt P41182); test: BCL6 protein degradation in DLBCL cell lines measured by ELISA; format: cell-based; design: Degradation of BCL6 protein in DLBCL cell lines were measured by ELISA; endogenous in cells; host or cells: OCI-Ly1, Farage, SU-DHL-4, SU-DHL-6, OCI-Ly7, SU-DHL-2, OCI-Ly10
[2] = system: LY2214; test: PDX model of DLBCL, high-grade B-cell lymphoma (HGBCL, LY2214); format: in vivo, NOD/SCID or BALB/c Nude Mice; conditions: 30 mg/kg PO QD×21, compared to vehicle
Procedure: (§1) HuPrime® Lymphoma Xenograft Models in NOD/SCID or BALB/c Nude Mice, 4/group, were dosed orally (per os, PO) daily for 21 days (QD×21) and tumor measurements were acquired twice per week. […] Data points represent the mean per group and error bars the standard error of the mean.

[3] = system: LY6934; test: PDX model of DLBCL, ABC/GCB (LY6934); format: in vivo, NOD/SCID or BALB/c Nude Mice; conditions: 30 mg/kg PO QD×21, compared to vehicle
Procedure: as §1

[4] = Body weight of mice in the PDX models; format: in vivo, NOD/SCID or BALB/c Nude Mice; conditions: 30 mg/kg PO QD×21
Procedure: as §1

[5] = system: OCI-Ly10; test: Tumor growth of DLBCL cell line derived xenograft model OCI-Ly10; format: in vivo, mice; conditions: po 3, 10 or 30 mg/kg bid×28 or 30 mg/kg qd×28, dosing dependent
Procedure: (§2) Mice bearing subcutaneous tumors were orally (po) administered vehicle or Compound A at 3, 10, or 30 mg/kg bi-daily for 28 days (bid×28) or 30 mg/kg daily for 28 days (qd×28). Dosing began with tumors at an average of 190 mm^3. […] FIG. 10C depicts tumor lysate BCL6 protein levels 16-hours post-last dose analyzed by western blotting. Individual tumor BCL6 levels are shown in a scatter plot, mean is represented by the bar, determined by densitometry, normalized to GAPDH loading controls, and shown as a percentage of vehicle. Percent BCL6 degradation (%) relative to vehicle is shown above each arm. Statistical analyses were performed using 2-way ANOVA: p<0.05 (*), p<0.0001 (****). Error bars represent standard error of the mean (±SEM).

[6] = biological target: T1, BCL6 protein; test: Tumor lysate BCL6 protein levels in OCI-Ly10 xenograft (western blotting); format: in vivo, mice; design: from tissue; host or cells: subcutaneous xenograft tumors of OCI-Ly1, OCI-Ly7, SU-DHL-2 or OCI-Ly10 cells in mice; conditions: all dose levels, 16-hours post-last dose (FIG. 10C)
Procedure: as §2

[7] = system: LY12962; test: PDX model of NHL NOS (LY12962); format: in vivo, NOD/SCID or BALB/c Nude Mice; conditions: 30 mg/kg PO QD×21
Procedure: as §1

## CNC(=O)COc1cc2cc(Nc3nc(N4CCC(O[C@H]5C[C@H](N6CCC(c7ccc8c(c7F)CN(C7CCC(=O)NC7=O)C8=O)CC6)C5)CC4)ncc3Cl)ccc2n(C(C)C)c1=O (stereo partly drawn) [Compound A, 2-({6-[(5-chloro-2-{4-[(1r,3r)-3-{4-[2-(2,6-dioxopiperidin-3-yl)-4-fluoro-1-oxo-2,3-dihydro-1H-isoindol-5-yl]piperidin-1-yl}cyclobutoxy]piperidin-1-yl}pyrimidin-4-yl)amino]-2-oxo-1-(propan-2-yl)-1,2-dihydroquinolin-3-yl}oxy)-N-methylacetamide]
[1]; ABC DLBCL cell lines SU-DHL-2, OCI-Ly10, 24 hours (FIG. 2C)
  BCL6 protein degradation: potent BCL6 protein degradation
[1]; GCB DLBCL cell lines Farage, SU-DHL-4, SU-DHL-6, OCI-Ly7, 24 hours (FIG. 2B)
  BCL6 protein degradation: potent BCL6 protein degradation
[1]; OCI-Ly1 cell line, 24-hours treatment, compared to E3-binding deficient analogue (FIG. 2A)
  BCL6 protein degradation: potent BCL6 protein degradation
[2]
  Change in mean tumor volume: tumor regression
[3]
  Change in mean tumor volume: tumor regression
[4]
  Body weight loss: No significant body weight loss
[5]
  Tumor growth: inhibits the tumor growth
[6]
  Tumor lysate BCL6 protein level: degraded BCL6 protein
[7]
  Change in mean tumor volume: tumor regressions
